This passage reports IC50 and IC90 results from ChEMBL document CHEMBL4483862, “Open-source discovery of chemical leads for next-generation chemoprotective antimalarials” (2018).

The assay relates to Plasmodium berghei. Description: Luciferase/luciferin-expressing antifolate-resistant parasites were used to infect a culture of HepG2 cells that were pre-incubated with compounds. Infected hepatocytes emit light due to the luciferase reaction. Assay results are presented as the percent inhibition of light emission compared to control. […]. The class given is functional. Particulars: sporozoite; for IC90: read-out: LUCIFERASE INFECTION ASSAY - IC90.

A value given as a limit tells only on which side of the number the result lay.

For `O=C(Nc1ccc(N2CCN(c3ccc(C(F)(F)F)cn3)CC2)nc1)c1cccs1`, the IC90 – broadly, the concentration at which the effect reaches the 90% level – is over 7.61 µM. The IC50 (usually the midpoint of a concentration-inhibition curve) (PBLUC_HILL_SLOPE 0.747, PBLUC_R_SQUARED 0.763, read-out: LUCIFERASE INFECTION ASSAY - IC50) came out at 0.638 µM.
Turning to `Cc1ncc(CC(=O)n2cc(C(=O)c3cc(F)ccc3O)cn2)s1`, the IC90 is over 10 µM. Where the note is “PBLUC_HILL_SLOPE 0.716, PBLUC_R_SQUARED 0.277, read-out: LUCIFERASE INFECTION ASSAY - IC50”, the IC50 was over 10 µM.
Consider `CCOC(=O)c1ccccc1NC(=O)C1CCN(c2ncnc3sc(C)c(C)c23)CC1`, for which the IC90 is over 10 µM. Besides, the IC50 (PBLUC_HILL_SLOPE 0.744, PBLUC_R_SQUARED 0.552, read-out: LUCIFERASE INFECTION ASSAY - IC50) came out at 5.7 µM.
With `O=C(Nc1ncccc1O)c1ccc(S(=O)(=O)NCc2ccco2)cc1`, the concentration for an effect of 90% (IC90) was over 10 µM. Moreover, the IC50 (PBLUC_HILL_SLOPE 0.839, PBLUC_R_SQUARED 0.334, read-out: LUCIFERASE INFECTION ASSAY - IC50) was determined as 1.04 µM.
On to `Cc1noc(C)c1S(=O)(=O)N(Cc1ccc(C(=O)NC2CC2)cc1)C1CC1`, for which the IC90 worked out at 3.5 µM. In addition, the half-inhibitory concentration (IC50) (PBLUC_HILL_SLOPE 0.781, PBLUC_R_SQUARED 0.696, read-out: LUCIFERASE INFECTION ASSAY - IC50) turned out to be 0.21 µM.
Regarding `COc1cc(NC(=S)Nc2cccc(OC(F)(F)F)c2)cc(C(F)(F)F)c1`, the IC90 is over 8.04 µM. The IC50 (PBLUC_HILL_SLOPE 0.721, PBLUC_R_SQUARED 0.563, read-out: LUCIFERASE INFECTION ASSAY - IC50) turned out to be 2.34 µM.
`O/N=C1\CC(c2ccccc2)Sc2ccccc21` (centres undefined): the IC90 was over 12.9 µM. The 50% inhibitory concentration (IC50) (PBLUC_HILL_SLOPE 0.783, PBLUC_R_SQUARED 0.658, read-out: LUCIFERASE INFECTION ASSAY - IC50) came out at 3.88 µM.
In the case of `O=C(Nc1nc2ccc(Oc3ccccc3)cc2s1)C1=COCCO1`, the concentration for an effect of 90% (IC90) was over 10 µM. Moreover, the half-inhibitory concentration (IC50) (PBLUC_HILL_SLOPE 0.789, PBLUC_R_SQUARED 0.599, read-out: LUCIFERASE INFECTION ASSAY - IC50) came to 5.28 µM.
With `CN(C)c1ccc(C(c2ccc(N(C)C)cc2)c2ccc(Cl)c(Cl)c2)cc1`, the IC90 is over 8.26 µM. In addition, for the setting “PBLUC_HILL_SLOPE 0.805, PBLUC_R_SQUARED 0.379, read-out: LUCIFERASE INFECTION ASSAY - IC50”, the IC50 stood at 3.91 µM.
In the case of `O=C(Nc1ccncc1)c1cc(Br)c(Br)s1`, the 90% effect concentration (IC90) was over 10 µM. In addition, the IC50 (PBLUC_HILL_SLOPE 0.742, PBLUC_R_SQUARED 0.564, read-out: LUCIFERASE INFECTION ASSAY - IC50) was found to be 4.29 µM.
On to `Cc1c(C)n(CCCN(C)C)c2ncn3nc(COc4ccccc4)nc3c12`, for which the IC90 is over 8.72 µM. For the setting “PBLUC_HILL_SLOPE 0.81, PBLUC_R_SQUARED 0.755, read-out: LUCIFERASE INFECTION ASSAY - IC50”, the IC50 was found to be 0.821 µM.
Turning to `Cc1cc(N2CCN(C)CC2)n2ncc(-c3ccccc3Cl)c2n1`, the concentration for an effect of 90% (IC90) was over 9.65 µM. Moreover, under “PBLUC_HILL_SLOPE 0.809, PBLUC_R_SQUARED 0.766, read-out: LUCIFERASE INFECTION ASSAY - IC50”, the 50% inhibitory concentration (IC50) is 1.46 µM.
In the case of `c1ccc2sc(-c3nc4ccccc4s3)nc2c1`, the IC90 was over 10 µM. The IC50 (PBLUC_HILL_SLOPE 0.811, PBLUC_R_SQUARED 0.754, read-out: LUCIFERASE INFECTION ASSAY - IC50) worked out at 1.16 µM.
With `Cc1ccc[n+](CC(=O)c2ccc3c(c2)Cc2ccccc2-3)c1C`, the concentration for an effect of 90% (IC90) was over 8.37 µM. Also, the IC50 (PBLUC_HILL_SLOPE 0.83, PBLUC_R_SQUARED 0.466, read-out: LUCIFERASE INFECTION ASSAY - IC50) is over 8.37 µM.
As for `C=CCN(C(=O)c1[nH]c(C)c(C(C)=O)c1C)c1nc2c(s1)CCCC2`, the IC90 was found to be 6.45 µM. The IC50 (PBLUC_HILL_SLOPE 0.713, PBLUC_R_SQUARED 0.94, read-out: LUCIFERASE INFECTION ASSAY - IC50) was found to be 0.296 µM.
On to `Cc1cccc(OCC(=O)Nc2nc(C)c(Cc3ccc4c(c3)OCO4)s2)c1`, for which the IC90 was over 10 µM. Further, the IC50 (PBLUC_HILL_SLOPE 0.768, PBLUC_R_SQUARED 0.0907, read-out: LUCIFERASE INFECTION ASSAY - IC50) was over 10 µM.
Turning to `CN(C)c1ccc(Nc2nc(=O)cn[nH]2)cc1`, the 90% effect concentration (IC90) is over 14.3 µM. For the same compound, the IC50 (PBLUC_HILL_SLOPE 0.727, PBLUC_R_SQUARED 0.391, read-out: LUCIFERASE INFECTION ASSAY - IC50) was over 14.3 µM.
For `C=CCSc1nnc(-c2ccc(C(C)(C)C)cc2)n1-c1ccc(Cl)cc1`, the IC90 is over 8.59 µM. In addition, the IC50 (PBLUC_HILL_SLOPE 0.788, PBLUC_R_SQUARED 0.735, read-out: LUCIFERASE INFECTION ASSAY - IC50) is over 8.59 µM.
With `Cc1c2cnn(C)c(=O)c2c(C)n1Cc1cccs1`, the IC90 is over 12.1 µM. Besides, the half-inhibitory concentration (IC50) (PBLUC_HILL_SLOPE 0.733, PBLUC_R_SQUARED 0.45, read-out: LUCIFERASE INFECTION ASSAY - IC50) is 4.19 µM.
Consider `OC(c1cn2cc(-c3ccc(F)cc3)nc2s1)(C(F)(F)F)C(F)(F)F`, for which the IC90 was 6.57 µM. The IC50 (PBLUC_HILL_SLOPE 0.791, PBLUC_R_SQUARED 0.914, read-out: LUCIFERASE INFECTION ASSAY - IC50) was determined as 0.408 µM.
Turning to `Cc1ccc(-c2cnc3c(Nc4ccc(NS(=O)(=O)c5ccc(C)cc5)cc4)nccn23)cc1`, the concentration for an effect of 90% (IC90) was over 7.03 µM. Where the note is “PBLUC_HILL_SLOPE 0.774, PBLUC_R_SQUARED 0.875, read-out: LUCIFERASE INFECTION ASSAY - IC50”, the IC50 turned out to be 1.09 µM.
On to `COc1cccc(/C=N/NC(=O)C2CCCN(C(=S)NNC3CC4C=CC3C4)CC2)c1O` (centres undefined), for which the 90% effect concentration (IC90) was over 7.21 µM. Also, the half-inhibitory concentration (IC50) (PBLUC_HILL_SLOPE 0.853, PBLUC_R_SQUARED 0.602, read-out: LUCIFERASE INFECTION ASSAY - IC50) stood at 1.47 µM.
Turning to `CCOc1ccc2c(c1)C(=O)C(=O)N2Cc1ccc(OC)cc1`, the IC90 is over 10.6 µM. Besides, the IC50 (PBLUC_HILL_SLOPE 0.721, PBLUC_R_SQUARED 0.0969, read-out: LUCIFERASE INFECTION ASSAY - IC50) is over 10.6 µM.
Take `CCc1c(C(=O)Nc2ccn(CCc3ccccn3)n2)cnn1C(C)(C)C`: the IC90 came out at 2.23 µM. In addition, the IC50 (PBLUC_HILL_SLOPE 0.847, PBLUC_R_SQUARED 0.391, read-out: LUCIFERASE INFECTION ASSAY - IC50) was found to be 0.166 µM.
Take `O=C(O)c1c2c(nc3ccccc13)/C(=C/c1ccc(OC(F)F)cc1)CC2`: the 90% effect concentration (IC90) is over 10 µM. The IC50 (PBLUC_HILL_SLOPE 0.722, PBLUC_R_SQUARED 0.387, read-out: LUCIFERASE INFECTION ASSAY - IC50) came to 5.43 µM.
As for `CC12CCC(CC1=NNc1nc3ccccc3o1)C2(C)C` (centres undefined), the concentration for an effect of 90% (IC90) was over 10 µM. Moreover, the concentration for half-maximal inhibition (IC50) (PBLUC_HILL_SLOPE 0.724, PBLUC_R_SQUARED 0.679, read-out: LUCIFERASE INFECTION ASSAY - IC50) stood at 4.33 µM.
`Cc1c(C)n(CCCO)c2ncn3nc(-c4ccccc4)nc3c12`: the 90% effect concentration (IC90) was over 10.3 µM. The IC50 (PBLUC_HILL_SLOPE 0.753, PBLUC_R_SQUARED 0.737, read-out: LUCIFERASE INFECTION ASSAY - IC50) worked out at 1.26 µM.
For the compound `COc1ccc(NC(=O)c2ccc(CN(C)C3CCCCCC3)cc2)cc1`, the IC90 is over 2 µM. The IC50 (PBLUC_HILL_SLOPE 0.775, PBLUC_R_SQUARED 0.25, read-out: LUCIFERASE INFECTION ASSAY - IC50) turned out to be 1.73 µM.
In the case of `Cc1ccsc1CN(C)C(C)C(=O)Nc1cc(C(F)(F)F)ccc1N1CCOCC1` (centres undefined), the concentration for an effect of 90% (IC90) was over 10 µM. In addition, the IC50 (PBLUC_HILL_SLOPE 0.840, 16.2, PBLUC_R_SQUARED 0.288, 0.265, read-out: LUCIFERASE INFECTION ASSAY - IC50) is over 10 µM.
With `O=C(Nc1ccncc1)c1cc([N+](=O)[O-])ccc1Sc1ccccc1`, the IC90 was over 9.39 µM. Further, where the note is “PBLUC_HILL_SLOPE 0.732, PBLUC_R_SQUARED 0.239, read-out: LUCIFERASE INFECTION ASSAY - IC50”, the IC50 turned out to be 3.82 µM.
As for `Fc1ccc(-c2cnn3c(NCc4cccs4)ccnc23)cc1Cl`, the 90% effect concentration (IC90) is 7.94 µM. Where the note is “PBLUC_HILL_SLOPE 0.723, PBLUC_R_SQUARED 0.681, read-out: LUCIFERASE INFECTION ASSAY - IC50”, the half-maximal inhibitory concentration (IC50) turned out to be 0.38 µM.
Regarding `Clc1cccc(Nc2ncc(-c3ccc4c(c3)OCCCO4)s2)c1`, the concentration for an effect of 90% (IC90) is 3.49 µM. For the setting “PBLUC_HILL_SLOPE 0.775, PBLUC_R_SQUARED 0.83, read-out: LUCIFERASE INFECTION ASSAY - IC50”, the 50% inhibitory concentration (IC50) worked out at 0.205 µM.
Take `O=C1OCCC1Sc1nc(-c2ccccc2)c(-c2ccccc2)o1` (centres undefined): the concentration for an effect of 90% (IC90) is over 9.78 µM. The concentration for half-maximal inhibition (IC50) (PBLUC_HILL_SLOPE 0.774, PBLUC_R_SQUARED 0.522, read-out: LUCIFERASE INFECTION ASSAY - IC50) came out at 4.13 µM.
Consider `CSc1nccc(-c2ccc3c(c2)CCC(C)(C)O3)n1`, for which the IC90 is 11 µM. In addition, the IC50 (PBLUC_HILL_SLOPE 0.747, PBLUC_R_SQUARED 0.886, read-out: LUCIFERASE INFECTION ASSAY - IC50) was determined as 0.583 µM.
For `Cc1ccc(S(=O)(=O)Oc2cc(C)ccc2C)cc1`, the IC90 is over 11.9 µM. Also, the IC50 (PBLUC_HILL_SLOPE 0.836, PBLUC_R_SQUARED 0.347, read-out: LUCIFERASE INFECTION ASSAY - IC50) came to 4.27 µM.
Consider `c1ccc(CNCc2cn(-c3ccccc3)nc2-c2ccncc2)cc1`, for which the IC90 is over 8.76 µM. The IC50 (PBLUC_HILL_SLOPE 0.853, PBLUC_R_SQUARED 0.208, read-out: LUCIFERASE INFECTION ASSAY - IC50) was over 8.76 µM.
For `O=C(Cn1nnc2ccccc2c1=O)c1ccc(C2CCCCC2)cc1`, the 90% effect concentration (IC90) was over 10 µM. Further, the IC50 (PBLUC_HILL_SLOPE 0.775, PBLUC_R_SQUARED 0.761, read-out: LUCIFERASE INFECTION ASSAY - IC50) was 1.11 µM.
